Reference: patent publication US7799795B2, “Aryl nitrile compounds and compositions and their uses in treating inflammatory and related disorders” (Amgen Inc., priority 2005, dated 2010)
Read-outs that look alike come from different tables or passages of the source.

Legend:
CXCR3 [1] = target: T1, CXCR3 (Homo sapiens, UniProt P49682); test: CXCR3 binding assay in binding buffer (125I-labelled chemokine, CXCR3-expressing cells); details: absence of human plasma
T1 construct: ChemoCentryx
T1 sequence (P49682 1-368): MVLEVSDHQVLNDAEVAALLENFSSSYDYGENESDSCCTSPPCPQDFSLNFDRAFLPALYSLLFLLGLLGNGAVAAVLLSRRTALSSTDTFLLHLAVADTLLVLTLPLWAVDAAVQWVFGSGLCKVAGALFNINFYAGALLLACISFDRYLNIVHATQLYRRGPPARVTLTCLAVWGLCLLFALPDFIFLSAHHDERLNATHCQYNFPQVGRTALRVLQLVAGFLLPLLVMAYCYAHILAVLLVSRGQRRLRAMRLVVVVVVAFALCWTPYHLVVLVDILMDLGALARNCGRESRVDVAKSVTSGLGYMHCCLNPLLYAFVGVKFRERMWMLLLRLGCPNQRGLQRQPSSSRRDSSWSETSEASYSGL
Method: (§1) CXCR3 Binding Assay: CXCR3 binding assays were conducted as previously described (see, e.g., Example 12 in WO 02/083143, incorporated herein by reference in its entirety), in the absence (“binding buffer”) or presence of human plasma. Unless otherwise noted, all reagents used are available from commercial sources (e.g., Sigma-Aldrich, St. Louis, Mo., USA). Test compounds are diluted in DMSO to a concentration that is 40-times the intended final assay concentration; 5 μL are transferred to each well of a 96-well flat-bottomed polypropylene plate (e.g., from Greiner, Inc.). CXCR3-expressing cells obtained from ChemoCentryx were used in the assays to generate the data set forth below. The cells were resuspended in assay buffer (25 mM Hepes, 80 mM NaCl, 1 mM CaCl2, 5 mM MgCl2, 0.2% bovine serum albumin, pH 7.1, stored at 4° C.) at 5 million cells per mL; 100 μL of this cell suspension is then transferred to each well of a 96-well plate containing the diluted test compounds. ^125I-labelled chemokine (purchased from commercial sources, e.g., Amersham, PE Life Sciences) is diluted in assay buffer to a concentration of approximately […]; 100 μL of this chemokine solution is transferred to each well of a 96-well plate containing compounds and cell suspension. The plates are sealed with commercially available foil plate seals (e.g., from E&K Scientific), and stored at 4° C. for a period of 2 to 4 h, shaking gently. At the end of this incubation period, the contents of the assay plates are transferred to GF/B filter plates (Packard) that have been pre-coated by dipping into a solution containing 0.3% polyethyleneimine (Sigma-Aldrich), using a cell harvester (Packard), and washing twice with wash buffer (25 mM Hepes, 500 mM NaCl, 1 mM CaCl2, 5 mM MgCl2, pH 7.1, stored at room temperature). The filter plates are sealed on the bottom with plate seals (Packard), 50 μL of Microscint-20 scintillation fluid (Packard) is added to each well, and the top of the plates are sealed with clear plastic (TopSeal A, Packard). The plates are counted on a scintillation counter, such as a Packard TopCount. To measure non-specific binding, 4 wells containing unlabelled “cold” chemokine were included on each 96-well plate. To measure maximum binding, 4 wells containing 5 μL of DMSO, 100 μL of cell suspension and 100 μL of ^125I-labelled chemokine solution were included on each 96-well plate. Data were analyzed using commercially available software (e.g., Excel from Microsoft, Prism from GraphPad Software Inc.).

CXCR3 [2] = target: T1, CXCR3; test: CXCR3 binding assay in presence of human plasma
Method: as §1

[3] = test system: Human peripheral blood mononuclear cells (PBMCs); test: I-TAC migration assay; assay type: cell-based; details: PBMC; activated human PBMCs, human ITAC, in human plasma
Method: I-TAC migration assay: Human peripheral blood mononuclear cells (PBMCs) were activated with OKT3 (purified by AB solutions from hybridoma cell line OKT3 (ATCC CRL-8001)) and IL-2 (Peprotech, Inc., Rocky Hill, N.J., USA). After fourteen days, the cells were loaded with chloromethyl-fluoroscein-diacetate (CMFDA) (Molecular Probes, Inc.) by incubating the activated PBMCs in 1 ng/mL CMFDA for >1.5 hours at 37° C. in a tissue culture incubator. While cells were loading, the test compounds were diluted in DMSO to a concentration that is 100-times the intended final assay concentration. Next, 100 ng/mL of human ITAC (Peprotech) in human plasma (EDTA, drug free, Biological Specialty Corp) was prepared. Test compounds were added to the human ITAC preparation. Cells were washed once in prewarmed (37° C.) RPMI (Invitrogen) media with 0.5% BSA and resuspended to 5 million cells/ml in human plasma. The test compounds were added to the PBMCs. A 96-well chemotaxis migration plate (NeuroProbe, Inc.) was assembled by adding, per well, 30 uL of ITAC/compound mixture in the lower chamber, placing the […] membrane on top of the ITAC/compound well, and adding 50 uL of the PBMC/compound mixture to the well. The plates were covered and incubated in a humidified tissue culture incubator for 2.5 hours. A standard curve of CMFDA-loaded cells to be used as a reference for the test plates was prepared. Migration plates were disassembled and are read in a fluorometric plate reader set to 475 nm absorbance, 517 nm emission. The fluorometric reading was converted to cell number using the standard curve and calculating the percentage of migrating cells.

CYP3A4 [4] = test: Time dependent CYP inhibition assay (midazolam, pooled human liver microsomes); details: preincubation with NADPH, midazolam marker substrate
Method: (§3) CYP Inhibition Assay: Time dependent CYP inhibition assays were initiated by incubating a test compound in 0.1 mM phosphate buffer containing pooled human liver microsomes (1 mg/mL protein) in the presence of NADPH for 0, 15 and 30 minutes. At each time point, an aliquot of the preincubation mixture was removed and added to 0.1 mM phosphate buffer containing marker substrate (midazolam) and fresh NADPH. The residual CYP activity, after the preincubation times of 0, 15, and 30 minutes, was monitored for 5 minutes. Data are expressed as the % 1-OH midazolam formation at 15 minutes compared to that formed at 0 minutes. […] DMSO (vehicle control) caused an approximate 10% drop in CYP activity over 15 minutes.

Rat PK (IV) = details: in vivo
Method: (§2) Pharmacokinetics of exemplary compounds of the invention was assessed in rats.

Rat PK PO = assay type: in vivo; details: Sprague-Dawley, plasma; for bioavailability: read-out: Rat PK PO F %
Method: In Vivo Metabolic Evaluation in Rat: To study the metabolic fate of test compounds in vivo, Sprague-Dawley (SD) rats were administered (orally gavage) test compound in suspension. Blood samples (˜0.3 mL/timepoint) were collected at 1, 2, 4, 8, 24, 30 and 48 hours post-dose into EDTA containing tubes. All blood samples were collected via tail artery venipuncture under isofluorane anesthesia. Blood samples were processed for plasma by centrifugation and stored frozen until analysis (−20° to −70° C.). Samples were analyzed using a sensitive and selective LC/MS/MS method. Briefly, samples were prepared for analysis using protein precipitation. An aliquot of the resulting supernatant was subjected to LC/MS/MS analysis. Separation of the analytes from endogenous material was achieved using an reverse phase HPLC. Column effluent was monitored using a Sciex API 365 triple quadrapole mass spectrometer with a Sciex TurboIon Spray probe. Unknown concentrations of testing articles were determined using a calibration curve from 1 to 2000 ng/mL.
as §2

CYP3A4 [5] = details: microsomes
Method: as §3

| SMILES | IC50 (CXCR3 [1]) [nM] | IC50 (CXCR3 [2]) [nM] | IC50 [3] [nM] | other results |
| --- | --- | --- | --- | --- |
| CCOc1ccc(-n2c([C@@H](C)N(CCS(=O)(=O)CC)C(=O)Cc3ccc(F)c(C(F)(F)F)c3)nc3ncccc3c2=O)cc1 | 1 | 7 | 22 | – |
| CCS(=O)(=O)CCN(C(=O)Cc1ccc(F)c(C(F)(F)F)c1)[C@H](C)c1nc2ncccc2c(=O)n1-c1ccc(O)cc1 | – | – | – | Time Dependent CYP3A4 Inhibition (CYP3A4 [4]): Yes |
| CCS(=O)(=O)CCN(C(=O)Cc1ccc(F)c(C(F)(F)F)c1)[C@H](C)c1nc2ccccn2c(=O)c1-c1ccc(C#N)cc1 | – | – | 41 | – |
| CCOc1ccc(-c2c([C@@H](C)N(CCS(=O)(=O)CC)C(=O)Cc3ccc(F)c(C(F)(F)F)c3)nc3ncccn23)cc1 | 4 | 70 | 1500 | – |
| CCS(=O)(=O)CCN(C(=O)Cc1ccc(F)c(C(F)(F)F)c1)[C@H](C)c1nc2ncccn2c1-c1ccc(C#N)cc1 | 10 | 49 | 83 | – |
| CCS(=O)(=O)CCN(C(=O)Cc1ccc(C(F)(F)F)c(F)c1)[C@H](C)c1nc2ncccn2c(=O)c1-c1ccc(C#N)cc1 | – | – | – | Vd (Rat PK (IV); read-out: Rat PK(IV) Vdss): 0.31 L/kg; MRT (Rat PK PO): 3.96 h; bioavailability (Rat PK PO): 24% |
| CCS(=O)(=O)CCN(C(=O)Cc1ccc(F)c(C(F)(F)F)c1)[C@H](C)c1nc2ncccc2c(=O)n1-c1ccc(C#N)cc1 [drawing 192] | – | – | 120 | Time Dependent CYP3A4 Inhibition (CYP3A4 [5]): NO |
| CCS(=O)(=O)CCN(C(=O)Cc1ccc(F)c(C(F)(F)F)c1)[C@H](C)c1nc2ncccc2c(=O)n1-c1ccc(C#N)cc1 [drawing 199] | – | – | – | clearance (Rat PK (IV); read-out: Rat PK(IV) Cl (converted)): 39.7 mL/min/kg; MRT (Rat PK PO): 1.5 h; bioavailability (Rat PK PO): 47.2% |

More lines, main results first:

| IC50 (CXCR3 [1]) [nM] | IC50 (CXCR3 [2]) [nM] | SMILES | IC50 [3] [nM] | other results |
| --- | --- | --- | --- | --- |
| 1 | 57 | CCOc1ccc(-c2c([C@@H](C)N(CCS(=O)(=O)CC)C(=O)Cc3ccc(F)c(C(F)(F)F)c3)nc3ccccn3c2=O)cc1 | 183 | – |
| 816 | 4080 | CCS(=O)(=O)CCN(C(=O)Cc1ccc(F)c(C(F)(F)F)c1)[C@H](C)c1nc2ccccn2c(=O)c1-c1ccc(O)cc1 | – | Time Dependent CYP3A4 Inhibition (CYP3A4 [4]): Yes |
| 10000 | 10000 | CCS(=O)(=O)CCN(C(=O)Cc1ccc(F)c(C(F)(F)F)c1)[C@H](C)c1nc2ncccn2c1-c1ccc(O)cc1 | – | Time Dependent CYP3A4 Inhibition (CYP3A4 [4]): Yes |
